Results from PubChem BioAssay (NCI).
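Five concentrations, 48 hours, 96-well plates. GI50: concentration for 50% inhibition of growth. TGI is the concentration that stops growth completely.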

How the values were obtained:
Assay in all cases: NCI tumour cell line growth inhibition, 48 h
DU-145 prostate = test system: DU-145 prostate
HT29 colon = test system: HT29 colon
K-562 leukemia = test system: K-562 leukemia
MCF7 breast = test system: MCF7 breast
MOLT-4 leukemia = test system: MOLT-4 leukemia
OVCAR-8 ovarian = test system: OVCAR-8 ovarian
SR leukemia = test system: SR leukemia
HCT-116 colon = test system: HCT-116 colon
HCT-15 colon = test system: HCT-15 colon
MDA-MB-231 breast = test system: MDA-MB-231 breast
NCI-H522 lung = test system: NCI-H522 lung
OVCAR-3 ovarian = test system: OVCAR-3 ovarian
RXF 393 renal = test system: RXF 393 renal
SF-268 CNS = test system: SF-268 CNS
SK-MEL-2 melanoma = test system: SK-MEL-2 melanoma
T-47D breast = test system: T-47D breast
U251 CNS = test system: U251 CNS
UO-31 renal = test system: UO-31 renal
786-0 renal = test system: 786-0 renal
A549 NSCLC = test system: A549 NSCLC
ACHN renal = test system: ACHN renal
BT-549 breast = test system: BT-549 breast
CAKI-1 renal = test system: CAKI-1 renal
CCRF-CEM leukemia = test system: CCRF-CEM leukemia
COLO 205 colon = test system: COLO 205 colon
EKVX NSCLC = test system: EKVX NSCLC
HCC-2998 colon = test system: HCC-2998 colon
HL-60(TB) leukemia = test system: HL-60(TB) leukemia
HOP-62 NSCLC = test system: HOP-62 NSCLC
HOP-92 NSCLC = test system: HOP-92 NSCLC
HS 578T breast = test system: HS 578T breast
IGROV1 ovarian = test system: IGROV1 ovarian
KM12 colon = test system: KM12 colon
LOX IMVI melanoma = test system: LOX IMVI melanoma
M14 melanoma = test system: M14 melanoma
MDA-MB-435 = test system: MDA-MB-435
NCI-H226 lung = test system: NCI-H226 lung
NCI-H23 lung = test system: NCI-H23 lung
NCI-H460 lung = test system: NCI-H460 lung
NCI/ADR-RES ovarian = test system: NCI/ADR-RES ovarian
OVCAR-4 ovarian = test system: OVCAR-4 ovarian
OVCAR-5 ovarian = test system: OVCAR-5 ovarian
PC-3 prostate = test system: PC-3 prostate
RPMI-8226 leukemia = test system: RPMI-8226 leukemia
SF-295 CNS = test system: SF-295 CNS
SF-539 CNS = test system: SF-539 CNS
SK-MEL-5 melanoma = test system: SK-MEL-5 melanoma
SK-OV-3 ovarian = test system: SK-OV-3 ovarian
SN12C renal = test system: SN12C renal
SNB-19 CNS = test system: SNB-19 CNS
SNB-75 CNS = test system: SNB-75 CNS
SW-620 colon = test system: SW-620 colon
TK-10 renal = test system: TK-10 renal
UACC-257 melanoma = test system: UACC-257 melanoma
A498 renal = test system: A498 renal
MALME-3M melanoma = test system: MALME-3M melanoma
SK-MEL-28 melanoma = test system: SK-MEL-28 melanoma
UACC-62 melanoma = test system: UACC-62 melanoma

## Cc1ccc(-c2cc3nc(C(Cl)Cl)nc(-c4cccnc4)n3n2)cc1
DU-145 prostate
  GI50: 0.548 µM
  TGI: 3.79 µM
HT29 colon
  GI50: 0.652 µM
  TGI: > 100 µM
K-562 leukemia
  GI50: 2.01 µM
  TGI: > 100 µM
MCF7 breast
  GI50: 2.01 µM
  TGI: > 100 µM
MOLT-4 leukemia
  GI50: 1.83 µM
  TGI: > 100 µM
OVCAR-8 ovarian
  GI50: 1.48 µM
  TGI: > 100 µM
SR leukemia
  GI50: 0.495 µM
  TGI: > 100 µM

## O=C(O)c1cc(-c2ccc(-c3ccc(-c4cc(C(=O)O)c5cc(Cl)ccc5n4)cc3)cc2)nc2ccc(Cl)cc12
HCT-116 colon
  GI50: 52.4 µM
HCT-15 colon
  GI50: 67.2 µM
MDA-MB-231 breast
  GI50: 46.5 µM
NCI-H522 lung
  GI50: 79.8 µM
OVCAR-3 ovarian
  GI50: 48.8 µM
RXF 393 renal
  GI50: 77.9 µM
SF-268 CNS
  GI50: 94.7 µM
SK-MEL-2 melanoma
  GI50: 56 µM
T-47D breast
  GI50: 50.9 µM
U251 CNS
  GI50: 40.9 µM
UO-31 renal
  GI50: 32.5 µM

## Cc1ccc2c(Nc3cccc(Cl)c3F)ncc(NC(=O)c3csc4c(N)ncnc34)c2c1
786-0 renal
  GI50: > 100 µM
  TGI: > 100 µM
A549 NSCLC
  GI50: > 73.5 µM
  TGI: > 100 µM
ACHN renal
  GI50: > 100 µM
  TGI: > 100 µM
BT-549 breast
  GI50: > 100 µM
  TGI: > 100 µM
CAKI-1 renal
  GI50: 0.734 µM
  TGI: > 100 µM
CCRF-CEM leukemia
  GI50: 21.2 µM
  TGI: > 100 µM
COLO 205 colon
  GI50: 0.0492 µM
  TGI: > 100 µM
DU-145 prostate
  GI50: > 100 µM
  TGI: > 100 µM
EKVX NSCLC
  GI50: > 100 µM
  TGI: > 100 µM
HCC-2998 colon
  GI50: 0.281 µM
  TGI: > 100 µM
HCT-116 colon
  GI50: 0.0961 µM
  TGI: > 100 µM
HCT-15 colon
  GI50: > 100 µM
  TGI: > 100 µM
HL-60(TB) leukemia
  GI50: 0.0656 µM
  TGI: > 100 µM
HOP-62 NSCLC
  GI50: 0.359 µM
  TGI: > 100 µM
HOP-92 NSCLC
  GI50: 0.136 µM
  TGI: 1.72 µM
HS 578T breast
  GI50: > 100 µM
  TGI: > 100 µM
HT29 colon
  GI50: 0.0779 µM
  TGI: > 100 µM
IGROV1 ovarian
  GI50: 0.605 µM
  TGI: > 100 µM
K-562 leukemia
  GI50: 1.5 µM
  TGI: > 100 µM
KM12 colon
  GI50: > 20.7 µM
  TGI: > 100 µM
LOX IMVI melanoma
  GI50: 0.0743 µM
  TGI: > 100 µM
M14 melanoma
  GI50: 0.0351 µM
  TGI: 0.608 µM
MCF7 breast
  GI50: > 100 µM
  TGI: > 100 µM
MDA-MB-231 breast
  GI50: 0.164 µM
  TGI: > 94 µM
MDA-MB-435
  GI50: 0.326 µM
  TGI: > 100 µM
MOLT-4 leukemia
  GI50: > 100 µM
  TGI: > 100 µM
NCI-H226 lung
  GI50: > 100 µM
  TGI: > 100 µM
NCI-H23 lung
  GI50: 0.522 µM
  TGI: > 100 µM
NCI-H460 lung
  GI50: > 100 µM
  TGI: > 100 µM
NCI-H522 lung
  GI50: > 100 µM
  TGI: > 100 µM
NCI/ADR-RES ovarian
  GI50: > 100 µM
  TGI: > 100 µM
OVCAR-3 ovarian
  GI50: > 100 µM
  TGI: > 100 µM
OVCAR-4 ovarian
  GI50: > 100 µM
  TGI: > 100 µM
OVCAR-5 ovarian
  GI50: 0.137 µM
  TGI: > 100 µM
OVCAR-8 ovarian
  GI50: > 76.8 µM
  TGI: > 100 µM
PC-3 prostate
  GI50: > 100 µM
  TGI: > 100 µM
RPMI-8226 leukemia
  GI50: 2.81 µM
  TGI: > 100 µM
RXF 393 renal
  GI50: > 100 µM
  TGI: > 100 µM
SF-268 CNS
  GI50: > 100 µM
  TGI: > 100 µM
SF-295 CNS
  GI50: > 100 µM
  TGI: > 100 µM
SF-539 CNS
  GI50: > 100 µM
  TGI: > 100 µM
SK-MEL-2 melanoma
  GI50: 0.0856 µM
  TGI: > 100 µM
SK-MEL-5 melanoma
  GI50: > 100 µM
  TGI: > 100 µM
SK-OV-3 ovarian
  GI50: > 100 µM
  TGI: > 100 µM
SN12C renal
  GI50: > 100 µM
  TGI: > 100 µM
SNB-19 CNS
  GI50: > 100 µM
  TGI: > 100 µM
SNB-75 CNS
  GI50: > 100 µM
  TGI: > 100 µM
SW-620 colon
  GI50: 1.21 µM
  TGI: > 100 µM
T-47D breast
  GI50: > 100 µM
  TGI: > 100 µM
TK-10 renal
  GI50: > 100 µM
  TGI: > 100 µM
U251 CNS
  GI50: > 76.3 µM
  TGI: > 100 µM
UACC-257 melanoma
  GI50: 0.0715 µM
  TGI: > 100 µM
UO-31 renal
  GI50: 0.291 µM
  TGI: > 100 µM

## Cc1nc(-c2cc3c(ccc4ccccc43)oc2=O)cc2c1c(=O)oc1ccc3ccccc3c12
786-0 renal
  TGI: > 100 µM
A498 renal
  TGI: > 100 µM
A549 NSCLC
  TGI: > 100 µM
ACHN renal
  TGI: > 100 µM
BT-549 breast
  TGI: > 100 µM
CAKI-1 renal
  TGI: > 100 µM
CCRF-CEM leukemia
  TGI: > 100 µM
COLO 205 colon
  TGI: > 100 µM
DU-145 prostate
  TGI: > 100 µM
EKVX NSCLC
  TGI: > 100 µM
HCC-2998 colon
  TGI: > 100 µM
HCT-116 colon
  TGI: > 100 µM
HCT-15 colon
  TGI: > 100 µM
HL-60(TB) leukemia
  TGI: > 100 µM
HOP-62 NSCLC
  TGI: > 100 µM
HOP-92 NSCLC
  TGI: > 100 µM
HT29 colon
  TGI: > 100 µM
IGROV1 ovarian
  TGI: > 100 µM
K-562 leukemia
  TGI: > 100 µM
KM12 colon
  TGI: > 100 µM
LOX IMVI melanoma
  TGI: > 100 µM
M14 melanoma
  TGI: > 100 µM
MALME-3M melanoma
  TGI: > 100 µM
MCF7 breast
  TGI: > 100 µM
MDA-MB-231 breast
  TGI: > 100 µM
MDA-MB-435
  TGI: > 100 µM
MOLT-4 leukemia
  TGI: > 100 µM
NCI-H23 lung
  TGI: > 100 µM
NCI-H460 lung
  TGI: > 100 µM
NCI-H522 lung
  TGI: > 100 µM
NCI/ADR-RES ovarian
  TGI: > 100 µM
OVCAR-3 ovarian
  TGI: > 100 µM
OVCAR-4 ovarian
  TGI: > 100 µM
OVCAR-5 ovarian
  TGI: > 100 µM
OVCAR-8 ovarian
  TGI: > 100 µM
PC-3 prostate
  TGI: > 100 µM
RXF 393 renal
  TGI: > 100 µM
SF-268 CNS
  TGI: > 100 µM
SF-295 CNS
  TGI: > 100 µM
SF-539 CNS
  TGI: > 100 µM
SK-MEL-2 melanoma
  TGI: > 100 µM
SK-MEL-28 melanoma
  TGI: > 100 µM
SK-MEL-5 melanoma
  TGI: > 100 µM
SK-OV-3 ovarian
  TGI: > 100 µM
SNB-19 CNS
  TGI: > 100 µM
SR leukemia
  TGI: > 100 µM
SW-620 colon
  TGI: > 100 µM
T-47D breast
  TGI: > 100 µM
TK-10 renal
  TGI: > 100 µM
U251 CNS
  TGI: > 100 µM
UACC-257 melanoma
  TGI: > 100 µM
UACC-62 melanoma
  TGI: > 100 µM
UO-31 renal
  TGI: > 100 µM
